Data taken from PMC4394464, “Identification and Pharmacokinetics of Multiple Potential Bioactive Constituents after Oral Administration of Radix Astragali on Cyclophosphamide-Induced Immunosuppression in Balb/c Mice” (International Journal of Molecular Sciences, 2015).

Assay: Profiling of absorbed constituents and metabolites in mice plasma after oral administration of RA (UFLC-DAD-Q-TOF-MS/MS)
Details: oral RA extract 6 g/kg BW; cyclophosphamide-induced immunosuppressed Balb/c mice; plasma sampled 0.25-36 h; '-' = not detected
Description: The peaks that appeared at the same position in the total ion chromatograms of both the dosed mice bio-samples and the RA extract, but not in the chromatograms of the controlled mice bio-samples, were regarded as absorbed constituents [22].
Following randomization into study groups, mice (6/group/male) received intraperitoneal injection once daily of cyclophosphamide (i.p. 80 mg/kg BW) for 6 days. Additionally, the control group was injected intraperitoneally with sterile physiological saline. […] Plasma was harvested by centrifugation at 3000× g for 10 min and then kept frozen at −70 °C until analysis.
After being vortexed for 1 min, the sample was centrifuged at 13,000× g at 4 °C for 30 min. The supernate was transferred into a fresh tube and evaporated with nitrogen. Then, the residue was dissolved in a 60-μL mobile phase with vortex mixing for 3 min and centrifuged at 13,000× g for 30 min. Finally, 10 μL of the supernatant were injected into the UFLC/DAD/Q-TOF-MS/MS system.
The multiple constituents in RA and the absorbed compounds in mice plasma were identified by the ultra-fast liquid chromatography/diode-array detector/quadrupole time-of-flight tandem mass spectrometry (UFLC/DAD/Q-TOF-MS/MS) method.

Compound | Source: Dosed Plasma (time points at which the compound was detected) [h]
COc1cc(C(=O)O)cc(OC)c1O [Peak 20, Syringic acid] | 0.25 to 36
COc1ccc(-c2coc3cc(OC4OC(C(=O)O)C(O)C(O)C4O)ccc3c2=O)cc1 (stereo not drawn) [Peak M3, Glucuronidated formononetin] | 0.25 to 8
COc1cc(C=O)cc(OC)c1O [Peak 23, Syringaldehyde] | 0.25 to 6
CC(C)(O)[C@@H]1CC[C@](C)([C@H]2[C@@H](O)C[C@@]3(C)[C@@H]4C[C@H](O[C@@H]5O[C@H](CO)[C@@H](O)[C@H](O)[C@H]5O)[C@H]5C(C)(C)[C@@H](O[C@@H]6OC[C@@H](O)[C@H](O)[C@H]6O[C@@H]6O[C@H](CO)[C@@H](O)[C@H](O)[C@H]6O)CC[C@@]56C[C@@]46CC[C@]23C)O1 (single isomer, unassigned; peak 41) [Peak 41, Astragaloside VI] | 0.25 to 24
COc1ccc2c(c1OC)OC1c3ccc(O[C@@H]4O[C@H](CO)[C@@H](O)[C@H](O)[C@H]4O)cc3OCC21 (single isomer, unassigned) [Peak 34, 9,10-dimethoxypterocarpan-3-O-glucoside] | 0.25 to 12
Sulfated formononetin [Peak M6] | 0.25 to 8
CC(C)(O[C@@H]1O[C@H](CO)[C@@H](O)[C@H](O)[C@H]1O)[C@@H]1CC[C@](C)([C@H]2[C@@H](O)C[C@@]3(C)[C@@H]4C[C@H](O)[C@H]5C(C)(C)[C@@H](O[C@@H]6OC[C@@H](O)[C@H](O)[C@H]6O[C@@H]6O[C@H](CO)[C@@H](O)[C@H](O)[C@H]6O)CC[C@@]56C[C@@]46CC[C@]23C)O1 (single isomer, unassigned; peak 40) [Peak 40, Astragaloside V] | 0.25 to 24
COc1cc(O[C@H]2O[C@H](CO)[C@H](O)[C@H](O)[C@H]2O[C@H]2OC[C@@](O)(CO)[C@H]2O)ccc1O (single isomer, unassigned) [Peak 13, Markhamioside F] | 0.25 to 8
O=C(O)CCCCCCCC(=O)O [Peak 32, Azelaic acid] | 0.25 to 36
Sulfated isomucronulatol [Peak M5] | 0.25 to 8
O=c1cc(-c2ccc(O)cc2)oc2cc(O[C@@H]3O[C@H](CO)[C@@H](O)[C@H](O)[C@H]3O)cc(O)c12 (single isomer, unassigned) [Peak 30, Cosmosiin] | 0.25 to 36
Nc1ncnc2c1ncn2[C@@H]1O[C@H](CO)[C@@H](O)[C@H]1O (single isomer, unassigned) [Peak 10, Adenine nucleoside] | 0.25 to 36
COc1ccc(-c2coc3cc(O[C@@H]4O[C@H](CO)[C@@H](O)[C@H](O)[C@H]4O)cc(O)c3c2=O)cc1O (single isomer, unassigned) [Peak 26, Pratensein-7-O-glucoside] | 0.25 to 8
COc1ccc(/C=C/C(=O)O)cc1O [Peak 27, Isoferulic acid] | 0.25 to 36
O=C(O)c1ccc(O)c(O)c1 [Peak 12, Protocatechuic acid] | 0.25 to 36
CC(CCC(O)C(C)(C)O)C1C(O)CC2(C)C3CC(OC4OC(CO)C(O)C(O)C4O)C4C(C)(C)C(OC5OCC(O)C(O)C5O)CCC45CC35CCC12C (single isomer, unassigned) [Peak 43, Cyclocanthoside E] | 3
